In PMC4864809, “C‐type natriuretic peptide in combination with sildenafil attenuates proliferation of rhabdomyosarcoma cells” (Cancer Medicine, 2016):

Legend:
[1] = system: RD‐GC‐B cells; test: Caspase‐3 activity (Nuc‐View 488 Caspase‐3 assay kit); type: cell-based, human; conditions: same conditions as proliferation assay, Nuc‐View 488 substrate, data not shown
[2] = system: ERK phosphorylation in parental RMS‐YM cells; test: Western blot of ERK phosphorylation, parental RMS‐YM; type: cell-based, human; conditions: data not shown
Procedure: (§1) A total of 1 × 10^5 cells per well were plated in 12‐well plastic plates in complete media. Cells were serum‐starved with RPMI‐1640 medium containing 1% serum for 24 h, and then treated with CNP (1 μmol/L) and/or sildenafil (100 μmol/L) for indicated times. Cells were lysed with NP‐40 buffer (0.5% NP‐40, 10 mmol/L Tris [pH 7.6], 0.15 mol/L NaCl, 1.5 mmol/L […]) containing phosphatase inhibitor cocktail (Nacalai Tesque). Samples were electrophoresed on 4–15% gradient gels (Bio‐Rad, Hercules, CA, USA) and transferred onto polyvinylidene difluoride transfer membranes (Millipore Bedford, MA). Antibody binding was detected with an enhanced chemiluminescence detection system (Amersham Pharmacia Biotech, Piscataway, NJ).

[3] = system: RD‐GC‐B xenograft tumors; test: Xenograft efficacy study; type: in vivo; conditions: for tumor growth (tumor volume): CNP 2.5 μg/kg/min continuous s.c. infusion, versus vehicle; for tumor growth (tumor volume) / Ki67 labeling index: n = 7–8; for Ki67 labeling index: RD‐GC‐B tumors, immunohistochemistry, relative to the control group; for Phosphorylated ERK levels in xenograft tumors: pERK1/2 versus total ERK1/2, western blot densitometry, after 4 weeks of treatment
Procedure: All animal experiments were performed according to a protocol approved by the Animal Care Ethics Committee of the National Cerebral and Cardiovascular Center Research Institute. Five‐week‐old male BALB/c nu/nu mice and 5‐week‐old male nonobese diabetic/severe combined immunodeficiency (NOD)⁄severe combined immunodeficiency (SCID) mice were purchased from Japan SLC (Shizuoka, Japan) and Oriental Yeast (Tokyo, Japan), respectively.
RD‐GC‐B cells (1–3 × 10^7 cells) were subcutaneously implanted into the chest and abdominal area of NOD/SCID mice. When the subcutaneous tumors reached a diameter of 10–12 mm, they were resected, divided into 5‐mm pieces, and reimplanted into the chest area of BALB/c nu/nu mice. Ten days after tumor implantation, administration of CNP and/or sildenafil was initiated. CNP was continuously infused using an osmotic mini‐pump (Alzet Model 1003D; Duret Corporation, Cupertino, CA), as previously reported 14. CNP was subcutaneously administered at a rate of 2.5 μg/kg/min, and treatment continued for 4 weeks. Sildenafil was intraperitoneally administered at a dose of 20 mg/kg every other day for 4 weeks. Tumor volume was calculated by the formula: V (mm^3) = 0.5 × a × b ^2, where a is the longest tumor axis and b is the shortest tumor axis.
Immunohitochemical staining was performed by the avidin‐biotin‐peroxidase complex (ABC) method using the Vectastain Elite ABC kit (Vector, Burlingame, CA) as described previously 14. Because the anti‐Ki67 antibody was mouse monoclonal antibody, a mouse on mouse immunodetection kit (Vector) was used. Images of immunohistochemical staining were captured using a FSX100 Bio Imaging Navigator microscope (Olympus, Tokyo, Japan). Ki67‐positive and ‐negative cells were counted using the CellSens Dimension software (Olympus). Ten randomly selected fields per section and 7–8 sections per animal were analyzed at 20 × magnification.

[4] = system: Raf/MEK/ERK signaling in RD‐GC‐B cells; test: Western blot of Raf/MEK/ERK phosphorylation, RD‐GC‐B; type: cell-based, human; conditions: for ERK phosphorylation: CNP 1 μmol/L and/or sildenafil 100 μmol/L, 1–8 h
Procedure: as §1

[5] = Plasma CNP measurements (CNP RIA kit); type: in vivo, C57BL/6 mice; conditions: continuous s.c. infusion 2.5 μg/kg/min by osmotic mini‐pump, blood 3 days after implantation, n = 5 versus untreated n = 10
Procedure: Osmotic mini‐pumps containing CNP were implanted subcutaneously in 6‐week‐old male C57BL/6 mice purchased from Japan SLC. CNP was administered at a rate of 2.5 μg/kg/min, and blood samples from these treated mice and untreated mice were withdrawn 3 days after the implantation. CNP content was determined using a CNP RIA kit (Phoenix Pharmaceuticals, Belmont, CA).

[6] = system: parental RMS‐YM cells; test: Cell proliferation assay, parental RMS‐YM; type: cell-based, human; conditions: data not shown
Procedure: (§2) A total of 2000 cells per well were seeded into 96‐well plates in 100 μL of culture medium. After 24 h, the wells were washed twice with 1% serum‐free RPMI‐1640 medium and subsequently incubated in this medium. Twenty‐four hours after serum deprivation, CNP (1 μmol/L) and/or sildenafil (100 μmol/L) were added, and the cells were incubated for 0–4 days. Cell proliferation was determined in sextuplicate using the Cell Counting Kit‐8 (Nacalai Tesque, Kyoto, Japan).

[7] = system: RD‐GC‐B and RMS‐YM‐GC‐B cells; test: Morphological appearance of cell death during proliferation assay; type: cell-based; conditions: during 96 h; CNP 1 μmol/L and/or sildenafil 100 μmol/L
Procedure: as §2

[8] = system: ERK phosphorylation in parental RD cells; test: Western blot of ERK phosphorylation, parental RD; type: cell-based, human; conditions: data not shown
Procedure: as §1

[9] = system: RD‐GC‐B cells; test: Cell proliferation assay (Cell Counting Kit‐8 / WST‐8), RD‐GC‐B; type: cell-based, human; conditions: CNP 1 μmol/L, 96 h, 1% serum, versus solvent control, n = 6, three independent experiments
Procedure: as §2

[10] = system: parental RD cells; test: Cell proliferation assay, parental RD; type: cell-based, human; conditions: data not shown
Procedure: as §2

[11] = system: Raf/MEK/ERK signaling in RMS‐YM‐GC‐B cells; test: Western blot of Raf/MEK/ERK phosphorylation, RMS‐YM‐GC‐B; type: cell-based, human; conditions: for ERK phosphorylation: CNP 1 μmol/L and/or sildenafil 100 μmol/L, 1–8 h
Procedure: as §1

[12] = system: RMS‐YM‐GC‐B cells; test: Cell proliferation assay (Cell Counting Kit‐8 / WST‐8), RMS‐YM‐GC‐B; type: cell-based, human; conditions: CNP 1 μmol/L, 96 h, 1% serum, versus solvent control, n = 6, three independent experiments
Procedure: as §2

[13] = subcutaneous infusion of CNP at 2.5 μg/kg/min; cited from earlier work
Excerpt: There are some limitations in this study. First, RMS cells stably expressing GC‐B expressed higher levels of GC‐B than clinical samples. However, given that the recurrent sample expressed a very high level of GC‐B, the findings made using RMS cells stably expressing GC‐B are still quite valuable.

[14] = target: T1, GC‐B in RD‐GC‐B cells (Homo sapiens, UniProt P20594); test: Measurement of intracellular cGMP (RIA) in RD‐GC‐B cells; type: cell-based; conditions: RD‐GC‐B cells stably expressing GC‐B
T1 construct: host or cells: RD and RMS‐YM cells, retrovirally infected and puromycin-selected (RD‐GC‐B, RMS‐YM‐GC‐B)
T1 sequence (P20594 23-1047): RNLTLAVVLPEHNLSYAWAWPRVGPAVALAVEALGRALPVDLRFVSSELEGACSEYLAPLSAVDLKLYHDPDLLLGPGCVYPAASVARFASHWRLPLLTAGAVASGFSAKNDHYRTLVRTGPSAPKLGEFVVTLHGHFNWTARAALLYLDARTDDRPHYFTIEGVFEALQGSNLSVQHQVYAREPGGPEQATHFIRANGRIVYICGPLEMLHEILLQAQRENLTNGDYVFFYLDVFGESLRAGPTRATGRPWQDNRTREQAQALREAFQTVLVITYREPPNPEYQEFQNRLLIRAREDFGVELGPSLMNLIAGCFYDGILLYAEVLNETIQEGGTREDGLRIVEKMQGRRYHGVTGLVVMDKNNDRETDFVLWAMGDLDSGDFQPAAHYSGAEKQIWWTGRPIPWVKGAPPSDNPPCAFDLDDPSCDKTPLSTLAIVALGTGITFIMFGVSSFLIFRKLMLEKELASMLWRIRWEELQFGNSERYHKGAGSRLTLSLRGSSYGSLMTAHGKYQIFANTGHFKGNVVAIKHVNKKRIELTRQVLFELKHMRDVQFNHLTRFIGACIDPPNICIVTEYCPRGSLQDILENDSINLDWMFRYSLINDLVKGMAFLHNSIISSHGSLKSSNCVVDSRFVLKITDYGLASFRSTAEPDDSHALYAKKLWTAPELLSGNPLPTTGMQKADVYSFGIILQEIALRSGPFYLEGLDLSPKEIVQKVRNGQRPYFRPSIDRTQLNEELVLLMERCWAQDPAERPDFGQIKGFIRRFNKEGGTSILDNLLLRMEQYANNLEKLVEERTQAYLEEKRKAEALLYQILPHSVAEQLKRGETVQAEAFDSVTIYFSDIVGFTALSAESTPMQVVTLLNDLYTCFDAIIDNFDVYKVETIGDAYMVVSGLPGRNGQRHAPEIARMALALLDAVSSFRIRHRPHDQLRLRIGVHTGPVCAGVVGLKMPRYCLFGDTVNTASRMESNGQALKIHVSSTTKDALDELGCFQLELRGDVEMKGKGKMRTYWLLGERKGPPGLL
Excerpt: (§3) The plasmid used for preparing retrovirus vector expressing GC‐B‐FLAG (pCX4 puro GC‐B‐FLAG) was constructed by introducing the GC‐B‐FLAG fragment, amplified by polymerase chain reaction (PCR) from human GC‐B obtained from Promega (Madison, WI), into the NotI site of pCX4 puro. The vector was transfected into BOSC cells with pE‐eco and pGp (TAKARA BIO, Kyoto, Japan) using FuGENE6 (Promega) to produce ecotropic retrovirus. After transfection, culture supernatants were collected, and filtered. Retroviral infection of RD and RMS‐YM cells was performed using the retrovirus and Ecotropic Receptor Booster (TAKARA BIO). After infection, cells were selected with puromycin. These resultant cell lines are referred to as RD‐GC‐B or RMS‐YM‐GC‐B.
(§4) Rhabdomyosarcoma cells were seeded onto 24‐well plastic plates and incubated for 24 h. After the cells were confluent as a monolayer, they were washed twice with 500 μL of serum‐free RPMI‐1640 and incubated in serum‐free medium for 24 h. CNP was dissolved in 5 mmol/L isobutylmethylxanthine (IBMX) at final concentrations of 1 nmol/L–10 μmol/L. Various concentrations of CNP were added to the medium, and the monolayer was incubated at 37°C for an additional 15 min. […] The cGMP content of the dried extract was quantitated using a radioimmunoassay (RIA) kit (Yamasa Shoyu, Tokyo, Japan).

[15] = target: T2, GC‐B receptors in RD cells (Homo sapiens, UniProt P20594); test: Measurement of intracellular cGMP (RIA) in RD cells; type: cell-based; conditions: 15 min
T2 construct: host or cells: RD cells
T2 sequence (P20594 23-1047): T1 sequence (P20594 23-1047)
Procedure: (§5) Rhabdomyosarcoma cells were seeded onto 24‐well plastic plates and incubated for 24 h. After the cells were confluent as a monolayer, they were washed twice with 500 μL of serum‐free RPMI‐1640 and incubated in serum‐free medium for 24 h. CNP was dissolved in 5 mmol/L isobutylmethylxanthine (IBMX) at final concentrations of 1 nmol/L–10 μmol/L. Various concentrations of CNP were added to the medium, and the monolayer was incubated at 37°C for an additional 15 min. The medium was rapidly removed by aspiration, and 400 μL of 70% ethanol containing 100 μmol/L hydrochloric acid (HCl) was added to lyse the cells. The cGMP content of the dried extract was quantitated using a radioimmunoassay (RIA) kit (Yamasa Shoyu, Tokyo, Japan).

[16] = target: T3, GC‐B in RMS‐YM‐GC‐B cells (Homo sapiens, UniProt P20594); test: Measurement of intracellular cGMP (RIA) in RMS‐YM‐GC‐B cells; type: cell-based; conditions: RMS‐YM‐GC‐B cells stably expressing GC‐B
T3 construct: host or cells: RD and RMS‐YM cells, retrovirally infected and puromycin-selected (RD‐GC‐B, RMS‐YM‐GC‐B)
T3 sequence (P20594 23-1047): T1 sequence (P20594 23-1047)
Excerpt: as §3, §4

[17] = system: Notch, Wnt, Hedgehog, and PI3K/AKT/mTOR signaling pathways in RD‐GC‐B cells; test: Western blot of HES‐1, β‐catenin, GLI1 and phosphorylated Akt, RD‐GC‐B; type: cell-based, human; conditions: CNP 1 µM, sildenafil 100 µM, 4 hours
Procedure: as §1

[18] = target: T4, GC‐B receptors in RMS‐YM cells (Homo sapiens, UniProt P20594); test: Measurement of intracellular cGMP (RIA) in RMS‐YM cells; type: cell-based; conditions: 15 min
T4 construct: host or cells: RMS‐YM cells
T4 sequence (P20594 23-1047): T1 sequence (P20594 23-1047)
Procedure: as §5

[19] = sildenafil 20 mg/kg i.p. every other day, 4 weeks
[20] = CNP 1 μmol/L, sildenafil 100 μmol/L
[21] = CNP 1 nmol/L–10 μmol/L with IBMX, 37°C, serum-free, RIA, average of four wells

## C‐type natriuretic peptide [CNP]
[1]
  caspase‐3 activity (apoptosis): not significantly induced
[2]
  reduction in ERK phosphorylation: no effect
[3]; 4 weeks, CNP 2.5 μg/kg/min s.c., sildenafil 20 mg/kg i.p. every other day, relative to control group
  body weight of mice during treatment (tolerability): did not induce weight loss
[3]; [19]
  tumor growth (tumor volume): did not suppress tumor growth significantly
[3]
  Ki67 labeling index: significantly reduced
  Phosphorylated ERK levels in xenograft tumors: ~30 % of control levels
[4]
  ERK phosphorylation: dephosphorylation of ERK
[4]; [20]
  phosphorylation of Raf‐1 and MEK: Dephosphorylation
[5]
  plasma concentration of CNP: significantly increased
[6]
  effect on proliferation: no effect
[7]
  morphological appearance of cell death: not observed
[8]
  reduction in ERK phosphorylation: no effect
[9]
  cell proliferation: significantly attenuated
[10]
  effect on proliferation: no effect
[11]
  ERK phosphorylation: dephosphorylation of ERK
[11]; [20]
  phosphorylation of Raf‐1 and MEK: Dephosphorylation
[12]
  cell proliferation: significantly attenuated
[13]
  hypotension: does not cause hypotension
[14]
  CNP‐dependent cGMP production: robust increases
[15]; with IBMX
  CNP concentration at which cGMP levels almost reached a plateau: ~1 µmol/L
[15]; [21]
  intracellular cGMP levels: increased the intracellular cGMP levels in a dose‐dependent manner
[16]
  CNP‐dependent cGMP production: robust increases
[17]
  Expression of HES‐1, β‐catenin, and GLI1, and phosphorylation of Akt: not changed
[18]; with IBMX
  CNP concentration at which cGMP levels almost reached a plateau: ~1 µmol/L
[18]; [21]
  intracellular cGMP levels: increased the intracellular cGMP levels in a dose‐dependent manner

## CCCc1nn(C)c2c(=O)[nH]c(-c3cc(S(=O)(=O)N4CCN(C)CC4)ccc3OCC)nc12 [sildenafil]
[1]
  caspase‐3 activity (apoptosis): not significantly induced
[3]; [19]
  tumor growth (tumor volume): did not suppress tumor growth significantly
[3]
  Ki67 labeling index: significantly reduced
  Phosphorylated ERK levels in xenograft tumors: ~30 % of control levels
[4]
  ERK phosphorylation: did not cause dephosphorylate ERK
[7]
  morphological appearance of cell death: not observed
[11]
  ERK phosphorylation: did not cause dephosphorylate ERK
[17]
  Expression of HES‐1, β‐catenin, and GLI1, and phosphorylation of Akt: not changed
